Measurements taken from US10675303B2, “Extracellular matrix compositions for the treatment of cancer” (ADAPTIVE BIOLOGIX, INC., priority 2008, dated 2020).

Experiments:
C6 cells = test: Tumor growth of C6 cells in nude mice; format: in vivo; details: compared to no treatment control (FIG. 12)
Description: (§1) Tumor growth of B16 cells, C6 cells, or MDA435 cells in the presence or absence of ECM, and with or without cisplatin, were examined in nude mice. Cells, ECM and Cisplatin were injected simultaneously subcutaneously in the lower haunch of a nude mouse. Tumor growth was followed over time using photography, measurements of length and width, then finally by weight. FIGS. 8 and 9 show the growth of tumors from C6 cells in nude mice in the presence (FIG. 9) and absence (FIG. 8) of ECM on day 14 post-injection. FIGS. 10 and 11 show the growth of tumors from C6 cells in nude mice in the presence of ECM with cisplatin (FIG. 10) and cisplatin without ECM (FIG. 11) of ECM on day 14 post-injection.

MDA435 cells = test: Tumor growth of MDA435 cells in nude mice; format: in vivo
Description: as §1

N.N.[Cl][Pt][Cl] [cisplatin]
tumor growth of C6 cells over 18 days (C6 cells): no growth | tumor growth of MDA435 cells over 25 days (MDA435 cells; nude mice, compared to no treatment control (FIG. 14)): reduction in tumor mass to zero | tumor growth of MDA435 cells in nude mice (MDA435 cells; versus no treatment control with palpable tumors (FIGS. 13A-D)): reduced or no tumor growth
